T1: ADAM 12-S (Homo sapiens, UniProt O43184)
T1 construct: The full-length human ADAM 12-S gene was cloned into plasmid (p1151); made in house; host or cells: Cos-7 cells (ATCC, CRL 1651)
T1 sequence (O43184 208-738 isoform O43184-2 limits assumed): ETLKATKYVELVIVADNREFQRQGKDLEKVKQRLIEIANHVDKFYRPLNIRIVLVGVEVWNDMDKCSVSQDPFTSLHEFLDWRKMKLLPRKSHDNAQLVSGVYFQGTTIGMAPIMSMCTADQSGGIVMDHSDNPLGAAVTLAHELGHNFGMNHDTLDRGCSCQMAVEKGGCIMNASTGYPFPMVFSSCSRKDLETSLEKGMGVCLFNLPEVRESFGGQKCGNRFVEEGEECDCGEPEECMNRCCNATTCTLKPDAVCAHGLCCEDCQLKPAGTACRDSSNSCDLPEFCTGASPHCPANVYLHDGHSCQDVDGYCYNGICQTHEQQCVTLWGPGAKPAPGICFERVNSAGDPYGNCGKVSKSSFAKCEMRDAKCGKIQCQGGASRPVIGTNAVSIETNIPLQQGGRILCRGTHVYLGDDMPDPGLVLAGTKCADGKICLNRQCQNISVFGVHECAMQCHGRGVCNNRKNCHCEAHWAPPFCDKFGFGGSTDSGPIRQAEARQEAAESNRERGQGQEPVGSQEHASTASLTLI
T1 sequence (O43184 29-207 partner limits assumed): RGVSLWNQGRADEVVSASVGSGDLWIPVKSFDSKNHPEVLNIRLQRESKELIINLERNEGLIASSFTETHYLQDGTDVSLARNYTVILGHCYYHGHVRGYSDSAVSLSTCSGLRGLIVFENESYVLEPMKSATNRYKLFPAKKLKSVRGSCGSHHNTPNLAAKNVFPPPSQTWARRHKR

B1: TIMP-4: endogenous inhibitor (protein, UniProt Q99727 30-224, looked up)
Metalloproteinase inhibitor 4: CSCAPAHPQQHICHSALVIRAKISSEKVVPASADPADTEKMLRYEIKQIKMFKGFEKVKDVQYIYTPFDSSLCGVKLEANSQKQYLLTGQVLSDGKVFIHLCNYIEPWEDLSLVQRESLNHHYHLNCGCQITTCYTVPCTISAPNECLWTDWLLERKLYGYQAQHYVCMKHVDGTCSWYRGHLPLRKEFVDIVQP
B2: TIMP-3: endogenous inhibitor (protein, UniProt P35625 24-211, looked up)
Metalloproteinase inhibitor 3: CTCSPSHPQDAFCNSDIVIRAKVVGKKLVKEGPFGTLVYTIKQMKMYRGFTKMPHVQYIHTEASESLCGLKLEVNKYQYLLTGRVYDGKMYTGLCNFVERWDQLTLSQRKGLNYRYHLGCNCKIKSCYYLPCFVTSKNECLWTDMLSNFGYPGYQSKHYACIRQKGGYCSWYRGWAPPDKSIINATDP

Target: T1, ADAM 12-S
Experiment: Inhibition of gelatin degradation by ADAM 12 (SDS-PAGE, Coomassie staining)
Format: biochemical
Conditions: ADAM 12 160 nM, 37° C., 18 h; for inhibition of gelatin degradation by ADAM 12: 30 μg gelatin
Protocol: The full-length human ADAM 12-S gene was cloned into plasmid (p1151) and transfection of Cos-7 cells (ATCC, CRL 1651) was conducted as previously described (5). Expressed recombinant ADAM 12-S secreted into the conditioned medium, was purified as previously described with minor modifications. Briefly, conditioned media from transfected Cos-7 cells was subjected to successive steps of SP Sepharose and ConA Sepharose chromatography as described (6). ADAM 12-S containing fractions from the ConA Sepharose column were pooled and after buffer exchange applied to a Vivapure H Mini Q column (VivaScience, Carlsbad, Calif.) pre-equilibrated with buffer A containing 0.05% CHAPS. Pure ADAM 12-S was detected in the flow-through fraction as determined by SDS-PAGE and immunoblot analysis.
Gelatin, Type IV collagen, fibronectin and casein-degrading activity of ADAM 12-S was measured as previously described (14). ADAM 12-S (1 μM) was mixed with non-reducing sample buffer and separated on a 10% polyacrylamide gel containing either 0.1% gelatin, 0.1% Type IV collagen or 0.02% fibronectin and a 12% polyacrylamide gel containing 0.1% casein. After electrophoresis, the gel was washed with 2.5% Triton X-100 for 30 min. Substrate digestion was conducted by incubating the gel in 50 mM Tris, pH 7.6, containing 5 mM CaCl2, 1 μM ZnCl2 and 0.02% NaN3 at 37° C. for 18 h. Gels were stained with 0.1% Coomassie and bands of enzyme activity were detected as zones of clearance on a background of uniform blue staining. […] For inhibition assays, ADAM 12 (160 nM) was incubated with 30 μg gelatin in assay buffer (50 mM Tris, pH 7.5) in the presence or absence of various inhibitors 5 mM 1, 10-phenanthroline, 5 mM EDTA, 1 mM Marimastat or two different concentrations (100 and 500 nM) of either TIMP-1, TIMP-2, TIMP-3 or TIMP-4 in a final volume of 30 μl at 37° C. for 18 h. Reactions were stopped with the addition of non-reducing sample buffer and the samples resolved by SDS-PAGE analysis followed by Coomassie staining.

[1] = inhibitor 100 and 500 nM (even at concentrations 5-fold higher than the enzyme)

Molecule | inhibition of gelatin degradation by ADAM 12 (inhibitor 5 mM) | inhibition of the gelatinase activity of ADAM 12 [1] | other results
c1cnc2c(c1)ccc1cccnc12 [1, 10-phenanthroline] | inhibited |  | 
O=C(O)CN(CCN(CC(=O)O)CC(=O)O)CC(=O)O [EDTA] | inhibited |  | 
CNC(=O)[C@@H](NC(=O)[C@H](CC(C)C)[C@H](O)C(=O)NO)C(C)(C)C [Marimastat] |  |  | inhibition of gelatin degradation by ADAM 12 (inhibitor 1 mM): partial inhibition
TIMP-1: endogenous inhibitor |  | did not inhibit | 
B1 |  | did not inhibit | 
B2 |  |  | inhibition of the gelatinase activity of ADAM 12 (inhibitor 500 nM): effective inhibitor

Source: patent US20180156808A1, “METHODS FOR DIAGNOSIS AND PROGNOSIS OF CANCERS OF EPITHELIAL ORIGIN” (Children's Medical Center Corporation, priority 2004, published 2018)
